Data from US4892875A, “Substituted heterocyclylalkyl esters of 1,4-dihydropyridine-3,5-dicarboxylic acids” (Takeda Chemical Industries, Ltd., priority 1982, dated 1990).

Test system: spontaneously hypertensive rats
Assay: Antihypertensive action (systolic blood pressure, caudal artery) in male spontaneously hypertensive rats
Type: in vivo, rat
Conditions: 10 mg/kg oral; for Change in blood pressure 1 hr. after treatment / Change in blood pressure 5 hrs. after treatment: after minus before medication, * P < 0.05 vs control; for Duration of antihypertensive effect: measured 1, 5, 8 and 24 hours after administration
Procedure: Male spontaneously hypertensive rats aged 10 to 11 weeks were used (in groups of 3 to 6 individuals). […] Each test compound was suspended in a 5% solution of gum arabic and orally administered. The dosage was 10 mg/kg for all compounds. Animals in a control group was given the above solution of gum arabic only.

Molecule	Change in blood pressure 1 hr. after treatment	Change in blood pressure 5 hrs. after treatment	Duration of antihypertensive effect
2-[4-(4-fluorophenyl)-1-piperazinyl]ethyl methyl 4-(3-chlorophenyl)-2,6-dimethyl-1,4-dihydropyridine-3,5-dicarboxylate [Example 42]	-25 mmHg	-35 mmHg	8 to 24 h
CCOC(=O)C1=C(C)NC(C)=C(C(=O)OCCN2CCN(C(c3ccccc3)c3ccccc3)CC2)C1c1cccc([N+](=O)[O-])c1 (stereo not drawn) [Example 2, 2-(4-benzhydryl-1-piperazinyl)ethyl ethyl 2,6-dimethyl-4-(3-nitrophenyl)-1,4-dihydropyridine-3,5-dicarboxylate]	-99 mmHg	-101 mmHg	8 to 24 h
CCOC(=O)C1=C(C)NC(C)=C(C(=O)OCCN2CCN(C(c3ccccc3)c3ccccc3)CC2)C1c1cccc(Cl)c1Cl (stereo not drawn) [Example 7, 2-(4-benzhydryl-1-piperazinyl)ethyl ethyl 4-(2,3-dichlorophenyl)-2,6-dimethyl-1,4-dihydropyridine-3,5-dicarboxylate]	-59 mmHg	-79 mmHg	> 24 h
COC(=O)C1=C(C)NC(C)=C(C(=O)OCCN2CCN(C(c3ccc(C)cc3)c3ccc(C)cc3)CC2)C1c1cccc([N+](=O)[O-])c1 (stereo not drawn) [Example 9, 2-[4-(4,4'-dimethylbenzhydryl)-1-piperazinyl]ethyl methyl 2,6-dimethyl-4-(3-nitrophenyl)-1,4-dihydropyridine-3,5-dicarboxylate]	-96 mmHg	-98 mmHg	> 24 h
COC(=O)C1=C(C)NC(C)=C(C(=O)OCCN2CCN(C(c3ccc(Cl)cc3)c3ccc(Cl)cc3)CC2)C1c1cccc([N+](=O)[O-])c1 (stereo not drawn) [Example 12, 2-[4-(4,4'-dichlorobenzhydryl)-1-piperazinyl]ethyl methyl 2,6-dimethyl-4-(3-nitrophenyl)-1,4-dihydropyridine-3,5-dicarboxylate]	-85 mmHg	-87 mmHg	> 24 h
COC(=O)C1=C(C)NC(C)=C(C(=O)OCCN2CCN(C(c3ccc(F)cc3)c3ccc(F)cc3)CC2)C1c1cccc(Cl)c1Cl (stereo not drawn) [Example 13, 2-[4-(4,4'-difluorobenzhydryl)-1-piperazinyl]ethyl methyl 4-(2,3-dichlorophenyl)-2,6-dimethyl-1,4-dihydropyridine-3,5-dicarboxylate]	-34 mmHg	-31 mmHg	8 to 24 h
COC(=O)C1=C(C)NC(C)=C(C(=O)OCCN2CCN(c3ccc(F)cc3)CC2)C1c1cccc([N+](=O)[O-])c1.Cl (stereo not drawn) [Example 16, 2-[4-(4-fluorophenyl)-1-piperazinyl]ethyl methyl 2,6-dimethyl-4-(3-nitrophenyl)-1,4-dihydropyridine-3,5-dicarboxylate hydrochloride]	-51 mmHg	-45 mmHg	8 to 24 h
COC(=O)C1=C(C)NC(C)=C(C(=O)OCCN2CCN(c3cccc(Cl)c3)CC2)C1c1cccc([N+](=O)[O-])c1 (stereo not drawn) [Example 17, 2-[4-(3-chlorophenyl)-1-piperazinyl]ethyl methyl 2,6-dimethyl-4-(3-nitrophenyl)-1,4-dihydropyridine-3,5-dicarboxylate]	-77 mmHg	-46 mmHg	8 to 24 h
CCOC(=O)C1=C(C)NC(C)=C(C(=O)OCCN2CCN(C(c3ccc(C)cc3)c3ccc(C)cc3)CC2)C1c1cccc(Cl)c1Cl (stereo not drawn) [Example 24, 2-[4-(4,4'-dimethylbenzhydryl)-1-piperazinyl]ethyl ethyl 4-(2,3-dichlorophenyl)-2,6-dimethyl-1,4-dihydropyridine-3,5-dicarboxylate]	-49 mmHg	-30 mmHg	ca. 8 hrs.
CCOC(=O)C1=C(C)NC(C)=C(C(=O)OCCN2CCN(C(c3ccccc3)c3ccccc3)CC2)C1c1cccc(Cl)c1 (stereo not drawn) [Example 28, 2-(4-benzhydryl-1-piperazinyl)ethyl ethyl 4-(3-chlorophenyl)-2,6-dimethyl-1,4-dihydropyridine-3,5-dicarboxylate]	-93 mmHg	-75 mmHg	8 to 24 h
COCCOC(=O)C1=C(C)NC(C)=C(C(=O)OCCN2CCN(C(c3ccccc3)c3ccccc3)CC2)C1c1cccc([N+](=O)[O-])c1 (stereo not drawn) [Example 30, 2-(4-benzhydryl-1-piperazinyl)ethyl 2-methoxyethyl 2,6-dimethyl-4-(3-nitrophenyl)-1,4-dihydropyridine-3,5-dicarboxylate]	-48 mmHg	-31 mmHg	8 to 24 h
CCOC(=O)C1=C(C)NC(C)=C(C(=O)OCCN2CCN(C(c3ccc(C)cc3)c3ccc(C)cc3)CC2)C1c1cccc(C(F)(F)F)c1 (stereo not drawn) [Example 32, 2-[4-(4,4'-dimethylbenzhydryl)-1-piperazinyl]ethyl ethyl 2,6-dimethyl-4-(3-trifluoromethylphenyl)-1,4-dihydropyridine-3,5-dicarboxylate]	-46 mmHg	-48 mmHg	8 to 24 h
CCOC(=O)C1=C(C)NC(C)=C(C(=O)OCCN2CCN(C(c3ccc(C)cc3)c3ccc(C)cc3)CC2)C1c1cccc(Cl)c1 (stereo not drawn) [Example 33, 2-[4-(4,4'-dimethylbenzhydryl)-1-piperazinyl]ethyl ethyl 4-(3-chlorophenyl)-2,6-dimethyl-1,4-dihydropyridine-3,5-dicarboxylate]	-51 mmHg	-60 mmHg	8 to 24 h
COC(=O)C1=C(C)NC(C)=C(C(=O)OCCCN2CCN(C(c3ccccc3)c3ccccc3)CC2)C1c1cccc(Cl)c1 (stereo not drawn) [Example 38, 3-(4-benzhydryl-1-piperazinyl)propyl methyl 4-(3-chlorophenyl)-2,6-dimethyl-1,4-dihydropyridine-3,5-dicarboxylate]	-50 mmHg	-42 mmHg	8 to 24 h
CCOC(=O)C1=C(C)NC(C)=C(C(=O)OCCN2CCN(c3ccc(F)cc3)CC2)C1c1cccc([N+](=O)[O-])c1 (stereo not drawn) [Example 41, ethyl 2-[4-(4-fluorophenyl)-1-piperazinyl]ethyl 2,6-dimethyl-4-(3-nitrophenyl)-1,4-dihydropyridine-3,5-dicarboxylate]	-55 mmHg	-67 mmHg	ca. 24 hrs.
COC(=O)C1=C(C)NC(C)=C(C(=O)OCCN2CCN(c3ccc(F)cc3)CC2)C1c1cccc(Cl)c1Cl (stereo not drawn) [Example 43, 2-[4-(4-fluorophenyl)-1-piperazinyl]ethyl methyl 4-(2,3-dichlorophenyl)-2,6-dimethyl-1,4-dihydropyridine-3,5-dicarboxylate]	-54 mmHg	-44 mmHg	8 to 24 h
COC(=O)C1=C(C)NC(C)=C(C(=O)OCCN2CCN(c3ccccc3Cl)CC2)C1c1cccc([N+](=O)[O-])c1 (stereo not drawn) [Example 44, 2-[4-(2-chlorophenyl)-1-piperazinyl]ethyl methyl 2,6-dimethyl-4-(3-nitrophenyl)-1,4-dihydropyridine-3,5-dicarboxylate]	-44 mmHg	-22 mmHg	8 to 24 h
COC(=O)C1=C(C)NC(C)=C(C(=O)OCCN2CCN(c3ccc(Cl)cc3)CC2)C1c1cccc([N+](=O)[O-])c1 (stereo not drawn) [Example 45, 2-[4-(4-chlorophenyl)-1-piperazinyl]ethyl methyl 2,6-dimethyl-4-(3-nitrophenyl)-1,4-dihydropyridine-3,5-dicarboxylate]	-57 mmHg	-42 mmHg	8 to 24 h
COC(=O)C1=C(C)NC(C)=C(C(=O)OCCN2CCN(c3cccc(Cl)c3)CC2)C1c1cccc(Cl)c1Cl (stereo not drawn) [Example 46]	-44 mmHg	-43 mmHg	8 to 24 h
COC(=O)C1=C(C)NC(C)=C(C(=O)OCCN2CCN(c3ccc(Cl)cc3)CC2)C1c1cccc(Cl)c1 (stereo not drawn) [Example 50, 2-[4-(4-chlorophenyl)-1-piperazinyl]ethyl methyl 4-(3-chlorophenyl)-2,6-dimethyl-1,4-dihydropyridine-3,5-dicarboxylate]	-58 mmHg	-37 mmHg	8 to 24 h
COC(=O)C1=C(C)NC(C)=C(C(=O)OCCN2CCN(c3ccccc3C)CC2)C1c1cccc([N+](=O)[O-])c1 (stereo not drawn) [Example 51, methyl 2-[4-(2-methylphenyl)-1-piperazinyl]ethyl 2,6-dimethyl-4-(3-nitrophenyl)-1,4-dihydropyridine-3,5-dicarboxylate]	-69 mmHg	-54 mmHg	8 to 24 h
COC(=O)C1=C(C)NC(C)=C(C(=O)OCCN2CCN(c3ccccc3C)CC2)C1c1cccc(Cl)c1 (stereo not drawn) [Example 52, methyl 2-[4-(2-methylphenyl)-1-piperazinyl]ethyl 4-(3-chlorophenyl)-2,6-dimethyl-1,4-dihydropyridine-3,5-dicarboxylate]	-54 mmHg	-14 mmHg	ca. 8 hrs.
